ChEMBL document CHEMBL1158260, “Six lignans from Phyllanthus myrtifolius” (J Nat Prod, 1996)
Activity calls are given as the source filed them. No cut-off for these calls is given here.

Tests used:
[1] = Inhibition of human DNA polymerase alpha
[2] = molecular target: Human immunodeficiency virus type 1 reverse transcriptase (Human immunodeficiency virus 1, UniProt Q72547); assay: (§1) Inhibition of HIV1 reverse transcriptase
[3] = molecular target: Human immunodeficiency virus type 1 reverse transcriptase (Human immunodeficiency virus 1) (UniProt Q72547); assay: Increase in HIV1 reverse transcriptase activity at 18.9 uM relative to control
[4] = molecular target: Human immunodeficiency virus type 1 reverse transcriptase (Human immunodeficiency virus 1) (UniProt Q72547); assay: Increase in HIV1 reverse transcriptase activity at 1.89 uM
[5] = molecular target: Human immunodeficiency virus type 1 reverse transcriptase (Human immunodeficiency virus 1) (UniProt Q72547); assay: Inhibition of HIV1 reverse transcriptase at 10 uM
[6] = molecular target: Human immunodeficiency virus type 1 reverse transcriptase (Human immunodeficiency virus 1) (UniProt Q72547); assay: as §1

SMILES | IC50 [1] [µM] | IC50 [2] [µM] | Activity [6] | further results
COCc1cc2cc(OC)c(OC)cc2c(-c2ccc3c(c2)OCO3)c1C=O [PHYLLAMYRICIN B] | 289 | 3.5 | – | –
COc1cc2c(O[C@@H]3O[C@H](CO)[C@@H](O)[C@H](O)[C@H]3O)c(CO)c(C)c(-c3ccc4c(c3)OCO4)c2cc1OC | – | – | – | Activity [3]: 65%; Activity [4]: 210%
COc1cc2cc3c(c(-c4ccc5c(c4)OCO5)c2cc1OC)COC3=O [RETROJUSTICIDIN B] | 989 | 5.5 | – | –
COc1cc2cc3c(c(-c4ccc5c(c4)OCO5)c2cc1OC)C(=O)OC3OC (centres undefined) | – | – | – | inhibition [5]: 20%
COc1cc(-c2c(C)c(CO)c(O[C@@H]3O[C@H](CO)[C@@H](O)[C@H](O)[C@H]3O)c3cc(OC)c(OC)cc23)ccc1O | – | – | inactive | –
COc1cc2c(O[C@@H]3O[C@H](CO)[C@@H](O)[C@H](O)[C@H]3O)c(CO)c(CO)c(-c3ccc4c(c3)OCO4)c2cc1OC | – | – | inactive | –
